Laboratory results as given in ChEMBL document CHEMBL1135706, “Design and synthesis of motilin antagonists derived from the [1-4] fragment of porcine motilin” (J Med Chem, 2002).
Where “and” joins values, the source holds several entries; their conditions need not be identical. Identical values can stand only once. Bridge positions count the residues as written; N and C are the ends. Square brackets hold non-standard residues; d marks the D form. Peptide text beside a SMILES is read from it. * marks the point of attachment. Tyr(3-tBu) = CC(C)(C)c1cc(C[C@H](N)C(=O)O)ccc1O; Ahx = NCCCCCC(=O)O; GABA = NCCCC(=O)O; βAla = NCCC(=O)O; tBu = CC(C)(C)*

What was measured:
Motilin receptor = Motilin receptor (Oryctolagus cuniculus, UniProt A5A4K8); test: Inhibition of the motilin receptor (MTL-R)
Oryctolagus cuniculus [1] = species on record: Oryctolagus cuniculus; test: pA2 (Contractile potency) is the negative logarithm of the molar concentration of antagonist causing a 2-fold shift to the right of the concentration response curve for motilin; type: functional, organism-based; details: read-out: pA2 (converted)
Oryctolagus cuniculus [2] = species on record: Oryctolagus cuniculus; test: Concentration of compound causing 50% inhibition of the smooth muscle contractile activity; type: functional, organism-based; details: Muscle tissue

Chain of Motilin receptor (A5A4K8 whole entry): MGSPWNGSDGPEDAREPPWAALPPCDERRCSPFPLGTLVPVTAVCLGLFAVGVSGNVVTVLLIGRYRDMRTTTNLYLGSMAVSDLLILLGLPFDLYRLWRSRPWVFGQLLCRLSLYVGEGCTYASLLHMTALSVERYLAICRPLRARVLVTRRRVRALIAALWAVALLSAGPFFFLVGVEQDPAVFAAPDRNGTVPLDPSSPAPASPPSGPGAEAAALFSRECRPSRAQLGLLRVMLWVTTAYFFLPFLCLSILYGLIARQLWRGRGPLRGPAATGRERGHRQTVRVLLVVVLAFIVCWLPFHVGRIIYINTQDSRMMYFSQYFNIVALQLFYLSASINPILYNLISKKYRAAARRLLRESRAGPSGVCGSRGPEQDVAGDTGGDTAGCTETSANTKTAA

SMILES | IC50 (Motilin receptor) | EC50 (Oryctolagus cuniculus [2]) | Kb (Oryctolagus cuniculus [1])
CC(C)(C)c1cc(CC2NC(=O)[C@@H](NC(=O)C(N)Cc3ccccc3)CCCCNC(=O)CCNC2=O)ccc1O (stereo not given in full) | 2100 nM | > 100000 nM | 2190 nM
CC(C)(C)c1cc(C[C@@H]2NC(=O)[C@@H](NC(=O)[C@@H](N)Cc3ccccc3)CCCCNC(=O)CCNC2=O)ccc1O | 10 nM | > 100000 nM | 42.7 nM
CC(C)(C)c1cc(C[C@@H]2NC(=O)[C@@H](NC(=O)[C@@H](N)Cc3ccccc3)CCCCNC(=O)CCNC2=O)cc(C(C)(C)C)c1O | 460 nM | > 10000 nM | –
CC(C)(C)c1cc(C[C@@H]2NC(=O)[C@@H](NC(=O)[C@@H](N)Cc3ccccc3)CCCCNC(=O)CNC2=O)ccc1O (H-FK[Tyr(3-tBu)]G; lactam 2-C) | 7 nM and 33 nM | > 100000 nM | 46.8 nM
CC(C)(C)c1cc(C[C@@H]2NC(=O)[C@@H](NC(=O)[C@@H](N)Cc3ccccc3)CCCCNC(=O)CCCCCNC2=O)ccc1O (H-FK[Tyr(3-tBu)][Ahx]; lactam 2-C) | 17 nM and 65 nM | > 100000 nM | 83.2 nM
CC(C)(C)c1cc(C[C@@H]2NC(=O)[C@@H](NC(=O)[C@@H](N)Cc3ccccc3)CCCCNC(=O)CCCNC2=O)ccc1O (H-FK[Tyr(3-tBu)][GABA]; lactam 2-C) | 33 nM and 59 nM | > 100000 nM | 34.7 nM

Further lines, with some results ahead:

IC50 (Motilin receptor) | EC50 (Oryctolagus cuniculus [2]) | SMILES | Kb (Oryctolagus cuniculus [1])
3100 nM | > 100000 nM | CC(C)(C)c1cc(C[C@H]2NC(=O)[C@@H](NC(=O)[C@@H](N)Cc3ccccc3)CCCCNC(=O)CCNC2=O)ccc1O | 5370 nM
480 nM | – | CCC(C)Oc1ccc(C[C@@H]2NC(=O)[C@@H](NC(=O)[C@@H](N)Cc3ccccc3)CCCCNC(=O)CCNC2=O)cc1 (stereo not given in full) | –
7500 nM | > 100000 nM | CC(C)(C)Oc1ccc(C[C@@H]2NC(=O)[C@@H](NC(=O)[C@@H](N)Cc3ccccc3)CCCCNC(=O)CCNC2=O)cc1 (H-FKY(tBu)[βAla]; lactam 2-C) | 120000 nM
25000 nM and 42000 nM | > 100000 nM | N[C@@H](Cc1ccccc1)C(=O)N[C@H]1CCCCNC(=O)CCNC(=O)[C@H](Cc2ccc(O)cc2)NC1=O (H-FKY[βAla]; lactam 2-C) | 89100 nM
1800 nM | > 100000 nM | CC(C)(C)c1cc(C[C@@H]2NC(=O)[C@@H](NC(=O)C(N)Cc3ccccc3)CCCCNC(=O)CCNC2=O)ccc1O (single isomer, unassigned) | 2000 nM
